Tests used:
Format in all cases: cell-based
Details in all cases: compounds at 50 nM and 500 nM
[1] = molecular target: T1, WEE1 (Homo sapiens, UniProt P30291+Q96SW2); assay: Western blot degradation of WEE1 in hPBMCs (24 h)
T1 construct: The supernatant was aspirated as the extracted total cell protein; endogenous in cells; host or cells: human peripheral blood mononuclear cells (hPBMCs)
Procedure, shortened: (§1)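 hPBMCs (1×10^6 cells/mL) were treated with compound at 50 nM and 500 nM for 24 h, lysed in RIPA with protease inhibitors and analysed by SDS-PAGE/Western blot. Band grayscale, normalised to internal control, gave protein remaining (%); DC50 estimated versus DMSO bands.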

[2] = molecular target: T2, IKZF1 (Homo sapiens, UniProt Q13422+Q96SW2); assay: Western blot degradation of IKZF1 in hPBMCs (24 h)
T2 construct: The supernatant was aspirated as the extracted total cell protein; endogenous in cells; host or cells: human peripheral blood mononuclear cells (hPBMCs)
T2 sequence (Q13422 whole entry): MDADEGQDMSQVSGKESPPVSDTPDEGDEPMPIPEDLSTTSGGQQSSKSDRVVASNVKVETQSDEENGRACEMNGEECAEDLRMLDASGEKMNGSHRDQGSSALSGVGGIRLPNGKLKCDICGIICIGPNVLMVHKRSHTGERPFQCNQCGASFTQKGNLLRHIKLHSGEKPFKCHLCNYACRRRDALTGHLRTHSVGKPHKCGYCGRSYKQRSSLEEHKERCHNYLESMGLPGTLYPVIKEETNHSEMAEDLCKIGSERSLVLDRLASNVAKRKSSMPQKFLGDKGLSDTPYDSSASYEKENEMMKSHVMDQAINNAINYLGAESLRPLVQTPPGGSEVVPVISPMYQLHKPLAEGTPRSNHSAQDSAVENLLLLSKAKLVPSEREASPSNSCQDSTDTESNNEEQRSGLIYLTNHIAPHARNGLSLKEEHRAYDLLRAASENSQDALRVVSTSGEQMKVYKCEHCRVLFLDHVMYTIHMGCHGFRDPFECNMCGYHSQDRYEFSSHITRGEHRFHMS
T2 sequence (Q96SW2 whole entry): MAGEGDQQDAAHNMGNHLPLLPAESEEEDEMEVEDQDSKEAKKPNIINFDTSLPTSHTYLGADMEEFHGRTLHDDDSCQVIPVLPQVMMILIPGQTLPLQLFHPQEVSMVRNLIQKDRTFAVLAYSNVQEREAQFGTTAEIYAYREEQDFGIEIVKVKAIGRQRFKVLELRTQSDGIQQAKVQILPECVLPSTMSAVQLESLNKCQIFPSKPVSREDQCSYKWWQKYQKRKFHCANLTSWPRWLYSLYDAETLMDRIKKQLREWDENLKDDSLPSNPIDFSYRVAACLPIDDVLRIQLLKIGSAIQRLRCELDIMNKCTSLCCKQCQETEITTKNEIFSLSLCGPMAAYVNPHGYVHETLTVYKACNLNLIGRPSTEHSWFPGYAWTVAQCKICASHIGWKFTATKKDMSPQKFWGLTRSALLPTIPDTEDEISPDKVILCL
T2 sequence (Q16531 whole entry partner): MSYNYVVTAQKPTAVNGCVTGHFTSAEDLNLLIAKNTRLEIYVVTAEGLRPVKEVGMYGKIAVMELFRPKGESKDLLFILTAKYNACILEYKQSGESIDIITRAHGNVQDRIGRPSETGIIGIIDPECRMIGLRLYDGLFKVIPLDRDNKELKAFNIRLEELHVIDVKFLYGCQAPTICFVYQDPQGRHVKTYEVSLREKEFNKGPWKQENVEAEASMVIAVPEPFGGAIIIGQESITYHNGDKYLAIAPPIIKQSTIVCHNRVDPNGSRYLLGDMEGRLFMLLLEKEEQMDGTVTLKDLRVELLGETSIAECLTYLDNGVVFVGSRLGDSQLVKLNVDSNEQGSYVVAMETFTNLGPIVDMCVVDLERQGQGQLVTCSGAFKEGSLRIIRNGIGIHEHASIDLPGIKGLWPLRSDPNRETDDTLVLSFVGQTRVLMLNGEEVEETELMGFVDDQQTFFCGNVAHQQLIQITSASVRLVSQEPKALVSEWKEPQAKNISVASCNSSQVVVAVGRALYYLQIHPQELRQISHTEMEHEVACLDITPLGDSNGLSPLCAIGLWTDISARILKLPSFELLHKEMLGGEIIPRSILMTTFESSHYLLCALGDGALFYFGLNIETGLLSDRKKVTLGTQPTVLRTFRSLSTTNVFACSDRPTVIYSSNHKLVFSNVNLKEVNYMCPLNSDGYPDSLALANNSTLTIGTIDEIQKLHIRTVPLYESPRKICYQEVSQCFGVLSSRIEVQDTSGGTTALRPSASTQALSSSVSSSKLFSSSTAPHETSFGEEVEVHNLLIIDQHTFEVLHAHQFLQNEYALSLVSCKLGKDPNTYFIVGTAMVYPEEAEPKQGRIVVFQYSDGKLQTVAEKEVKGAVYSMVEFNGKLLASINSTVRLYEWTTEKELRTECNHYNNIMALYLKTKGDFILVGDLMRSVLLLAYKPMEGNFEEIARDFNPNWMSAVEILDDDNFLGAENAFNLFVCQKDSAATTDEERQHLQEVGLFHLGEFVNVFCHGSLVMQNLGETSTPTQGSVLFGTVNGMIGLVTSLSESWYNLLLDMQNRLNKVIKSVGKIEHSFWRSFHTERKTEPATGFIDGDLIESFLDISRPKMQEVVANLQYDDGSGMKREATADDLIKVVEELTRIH
Procedure, shortened: as §1

[3] = molecular target: T3, IKZF2 (Homo sapiens, UniProt Q96SW2+Q9UKS7); assay: Western blot degradation of IKZF2 in hPBMCs (24 h)
T3 construct: The supernatant was aspirated as the extracted total cell protein; endogenous in cells; host or cells: human peripheral blood mononuclear cells (hPBMCs)
T3 sequence (Q9UKS7 whole entry): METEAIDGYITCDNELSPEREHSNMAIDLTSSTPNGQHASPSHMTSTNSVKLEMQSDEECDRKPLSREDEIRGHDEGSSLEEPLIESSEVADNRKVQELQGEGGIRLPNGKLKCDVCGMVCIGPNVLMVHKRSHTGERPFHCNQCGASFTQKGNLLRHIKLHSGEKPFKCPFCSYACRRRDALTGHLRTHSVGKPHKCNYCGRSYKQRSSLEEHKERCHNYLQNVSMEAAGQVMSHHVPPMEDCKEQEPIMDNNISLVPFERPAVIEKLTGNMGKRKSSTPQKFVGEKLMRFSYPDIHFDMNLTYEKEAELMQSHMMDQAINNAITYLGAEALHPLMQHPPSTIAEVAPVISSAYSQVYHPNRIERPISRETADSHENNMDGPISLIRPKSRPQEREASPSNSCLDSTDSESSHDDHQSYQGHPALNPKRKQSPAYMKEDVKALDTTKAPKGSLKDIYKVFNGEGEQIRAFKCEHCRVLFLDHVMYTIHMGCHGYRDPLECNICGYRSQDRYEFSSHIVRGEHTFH
T3 sequence (Q96SW2 whole entry): as the sequence (Q96SW2 whole entry) above
T3 sequence (Q16531 whole entry partner): as the sequence (Q16531 whole entry partner) above
Procedure, shortened: as §1

[4] = molecular target: T4, IKZF3 (Homo sapiens, UniProt Q96SW2+Q9UKT9); assay: Western blot degradation of IKZF3 in hPBMCs (24 h)
T4 construct: The supernatant was aspirated as the extracted total cell protein; endogenous in cells; host or cells: human peripheral blood mononuclear cells (hPBMCs)
T4 sequence (Q9UKT9 whole entry): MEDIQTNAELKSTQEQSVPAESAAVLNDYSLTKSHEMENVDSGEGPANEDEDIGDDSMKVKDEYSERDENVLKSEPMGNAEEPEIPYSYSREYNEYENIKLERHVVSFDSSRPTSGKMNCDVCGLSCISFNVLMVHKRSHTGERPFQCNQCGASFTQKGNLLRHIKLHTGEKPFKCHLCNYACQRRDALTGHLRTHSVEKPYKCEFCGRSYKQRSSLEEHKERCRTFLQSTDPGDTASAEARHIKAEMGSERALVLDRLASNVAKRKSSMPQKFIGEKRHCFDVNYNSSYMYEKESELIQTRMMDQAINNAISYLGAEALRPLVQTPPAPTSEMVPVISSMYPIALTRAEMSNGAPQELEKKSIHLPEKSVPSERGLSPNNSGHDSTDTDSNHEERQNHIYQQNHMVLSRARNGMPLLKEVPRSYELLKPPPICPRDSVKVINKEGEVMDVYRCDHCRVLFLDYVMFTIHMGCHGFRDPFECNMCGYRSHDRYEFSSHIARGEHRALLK
T4 sequence (Q96SW2 whole entry): as the sequence (Q96SW2 whole entry) above
T4 sequence (Q16531 whole entry partner): as the sequence (Q16531 whole entry partner) above
Procedure, shortened: as §1

[5] = molecular target: T5, CK1α (Homo sapiens, UniProt P48729+Q96SW2); assay: Western blot degradation of CK1α in hPBMCs (24 h)
T5 construct: The supernatant was aspirated as the extracted total cell protein; endogenous in cells; host or cells: human peripheral blood mononuclear cells (hPBMCs)
T5 sequence (P48729 whole entry): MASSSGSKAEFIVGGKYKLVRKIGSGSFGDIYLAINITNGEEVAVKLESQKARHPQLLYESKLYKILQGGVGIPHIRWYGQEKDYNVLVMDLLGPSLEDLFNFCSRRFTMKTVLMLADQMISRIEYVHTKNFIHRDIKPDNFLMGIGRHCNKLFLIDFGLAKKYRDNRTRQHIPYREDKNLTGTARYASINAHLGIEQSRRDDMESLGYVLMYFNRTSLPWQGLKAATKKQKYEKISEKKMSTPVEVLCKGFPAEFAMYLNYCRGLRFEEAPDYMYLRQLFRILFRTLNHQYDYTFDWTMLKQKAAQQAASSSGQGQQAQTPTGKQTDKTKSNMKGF
T5 sequence (Q96SW2 whole entry): as the sequence (Q96SW2 whole entry) above
T5 sequence (Q16531 whole entry partner): as the sequence (Q16531 whole entry partner) above
Procedure, shortened: as §1

[6] = molecular target: T6, GSPT1 (Homo sapiens, UniProt P15170+Q96SW2); assay: Western blot degradation of GSPT1 in hPBMCs (24 h)
T6 construct: The supernatant was aspirated as the extracted total cell protein; endogenous in cells; host or cells: human peripheral blood mononuclear cells (hPBMCs)
T6 sequence (P15170 whole entry): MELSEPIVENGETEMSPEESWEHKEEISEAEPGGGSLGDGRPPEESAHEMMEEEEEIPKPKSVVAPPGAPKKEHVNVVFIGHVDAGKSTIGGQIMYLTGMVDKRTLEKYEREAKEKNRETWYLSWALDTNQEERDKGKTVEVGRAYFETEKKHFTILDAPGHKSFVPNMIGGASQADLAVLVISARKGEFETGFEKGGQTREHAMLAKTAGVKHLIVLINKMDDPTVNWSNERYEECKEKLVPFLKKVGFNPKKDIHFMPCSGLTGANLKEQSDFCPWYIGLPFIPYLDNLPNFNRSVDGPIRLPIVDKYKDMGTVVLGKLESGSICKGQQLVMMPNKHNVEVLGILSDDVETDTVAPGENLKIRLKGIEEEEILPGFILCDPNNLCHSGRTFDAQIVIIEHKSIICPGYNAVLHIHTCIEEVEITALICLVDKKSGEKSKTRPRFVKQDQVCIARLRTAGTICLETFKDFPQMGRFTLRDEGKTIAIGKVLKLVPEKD
T6 sequence (Q96SW2 whole entry): as the sequence (Q96SW2 whole entry) above
T6 sequence (Q16531 whole entry partner): as the sequence (Q16531 whole entry partner) above
Procedure, shortened: as §1

Compound	WEE1 substrate protein remaining % [1]	IKZF1 substrate protein remaining % [2]	IKZF2 substrate protein remaining % [3]	IKZF3 substrate protein remaining % [4]	CK1α substrate protein remaining % [5]	GSPT1 substrate protein remaining % [6]
O=C1CCN(N2C(=O)c3ccc(CN4CCN(c5ncccn5)CC4)cc3C2=O)C(=O)N1 [GT-07285, 2-(2,4-dioxotetrahydropyrimidin-1(2H)-yl)-5-((4-(pyrimidin-2-yl)piperazin-1-yl)methyl)isoindoline-1,3-dione]	A (0% ≤ substrate protein remaining % ≤80%)	A (0% ≤ substrate protein remaining % ≤80%)	B (80%< substrate protein remaining % ≤100%)	B (80%< substrate protein remaining % ≤100%)	B (80%< substrate protein remaining % ≤100%)	B (80%< substrate protein remaining % ≤100%)
O=C1CCN(N2C(=O)c3ccc(CN4CCN(c5nccc(Cl)c5Br)CC4)cc3C2=O)C(=O)N1 [GT-07291, 5-((4-(3-bromo-4-chloropyridin-2-yl)piperazin-1-yl)methyl)-2-(2,4-dioxotetrahydropyrimidin-1(2H)-yl)isoindoline-1,3-dione]	A (0% ≤ substrate protein remaining % ≤80%)	B (80%< substrate protein remaining % ≤100%)	B (80%< substrate protein remaining % ≤100%)	B (80%< substrate protein remaining % ≤100%)	B (80%< substrate protein remaining % ≤100%)	A (0% ≤ substrate protein remaining % ≤80%)
O=C1CCN(N2C(=O)c3ccc(CN4CCCN(C(c5ccccc5)c5ccccc5)CC4)cc3C2=O)C(=O)N1 [GT-07295, 5-((4-benzhydryl-1,4-diazepan-1-yl)methyl)-2-(2,4-dioxotetrahydropyrimidin-1(2H)-yl)isoindoline-1,3-dione]	B (80%< substrate protein remaining % ≤100%)	B (80%< substrate protein remaining % ≤100%)	B (80%< substrate protein remaining % ≤100%)	B (80%< substrate protein remaining % ≤100%)	B (80%< substrate protein remaining % ≤100%)	A (0% ≤ substrate protein remaining % ≤80%)
CC1(C)CCC(CN2CCN(Cc3ccc4c(c3)CN(N3CCC(=O)NC3=O)C4=O)C(C(F)(F)F)C2)=C(c2ccc(Cl)cc2)C1 (stereo not drawn) [GT-07296, 1-(5-((4-((4′-chloro-5,5-dimethyl-3,4,5,6-tetrahydro-[1,1′-biphenyl]-2-yl)methyl)-2-(trifluoromethyl)piperazin-1-yl)methyl)-1-oxoisoindolin-2-yl)dihydropyrimidine-2,4(1H,3H)-dione]	A (0% ≤ substrate protein remaining % ≤80%)	A (0% ≤ substrate protein remaining % ≤80%)	B (80%< substrate protein remaining % ≤100%)	B (80%< substrate protein remaining % ≤100%)	A (0% ≤ substrate protein remaining % ≤80%)	A (0% ≤ substrate protein remaining % ≤80%)
O=C1CCN(N2Cc3cc(CN4CCN(CC5=C(c6ccc(F)cc6)CCCC5)CC4)ccc3C2=O)C(=O)N1 [GT-07297, 1-(5-((4-((4′-fluoro-3,4,5,6-tetrahydro-[1,1′-biphenyl]-2-yl)methyl)piperazin-1-yl)methyl)-1-oxoisoindolin-2-yl)dihydropyrimidine-2,4(1H,3H)-dione]	A (0% ≤ substrate protein remaining % ≤80%)	B (80%< substrate protein remaining % ≤100%)	A (0% ≤ substrate protein remaining % ≤80%)	A (0% ≤ substrate protein remaining % ≤80%)	A (0% ≤ substrate protein remaining % ≤80%)	A (0% ≤ substrate protein remaining % ≤80%)

From US20260356819A1, “OXOISOINDOLINYL-SUBSTITUTED […] DERIVATIVE AND USE THEREOF” (GLUETACS THERAPEUTICS (SHANGHAI) CO., LTD., priority 2023, published 2026)
